The assay concerns the target T1, Scytalone dehydratase (Magnaporthe oryzae (strain 70-15 / FGSC 8958) (Rice blast fungus)(Pyricularia oryzae), UniProt P56221).
T1 sequence (P56221 whole entry): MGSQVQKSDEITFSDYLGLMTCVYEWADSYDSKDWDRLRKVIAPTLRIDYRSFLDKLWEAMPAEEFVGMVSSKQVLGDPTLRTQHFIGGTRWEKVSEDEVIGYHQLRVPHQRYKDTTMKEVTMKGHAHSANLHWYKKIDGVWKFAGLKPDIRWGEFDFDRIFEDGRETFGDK
`CC[C@]1(C(=O)N[C@H](C)c2ccc(Br)cc2)C[C@@](C)(Cl)C1` registered a Ki of 0.021 nM.
The molecule `C[C@@H](NC(=O)[C@H]1C[C@@](C)(Cl)C1)c1ccc(Br)cc1` yielded a Ki of 44 nM.
The result for `C[C@@H](NC(=O)[C@]1(C)C[C@@](C)(O)C1)c1ccc(Br)cc1` reads 16 nM.
The result for `C[C@H](COc1ccccc1F)NC(=O)[C@]1(C(F)(F)F)C[C@@](C)(Cl)C1` reads 0.35 nM.
With `COc1cc(Br)ccc1C(C)NC(=O)[C@]1(C)C[C@](C)(Cl)C1` (mixture of isomers), the Ki was 0.03 nM.
For the molecule `C[C@@H](NC(=O)[C@]1(C)C[C@@](Cl)(CCl)C1)c1ccc(Br)cc1`, the affinity, expressed as Ki, was 0.016 nM.
Molecule `C[C@H](COc1cc(F)ccc1Cl)NC(=O)[C@]1(C)C[C@](C)(Cl)C1` yielded an inhibition constant (Ki) of 0.057 nM.
`C#C[C@]1(O)C[C@@](C)(C(=O)N[C@H](C)c2ccc(Br)cc2)C1` had an inhibition constant (Ki) of 28 nM.
`C[C@@H](NC(=O)[C@]1(C)C[C@](C)(Cl)C1)c1ccc(Br)cc1` gave a Ki of 0.1 nM.
Molecule `C[C@H](COc1cc(F)ccc1F)NC(=O)[C@]1(C)C[C@](C)(Cl)C1` came in with an inhibition constant Ki of 0.42 nM.
For the molecule `C[C@@H](NC(=O)C1(Cl)CC(Cl)(Cl)C1)c1ccc(Br)cc1`, the Ki came out at 0.45 nM.
As for `C[C@@H](NC(=O)C1(Cl)CC(C)(Cl)C1)c1ccc(Br)cc1` (mixture of isomers), the affinity corresponds to a Ki of 0.31 nM.
For `C[C@@H](NC(=O)[C@]1(C(F)(F)F)C[C@@](C)(Cl)C1)c1ccc(Cl)cc1`, the Ki worked out at 0.067 nM.
Then `C[C@@H](NC(=O)C(C#N)C(C)(C)C)c1ccc(Cl)cc1Cl` (stereo not given in full) [DICLOCYMET], with 0.036 nM; and `C[C@@H](NC(=O)[C@]1(C)C[C@](Cl)(CCl)C1)c1ccc(Br)cc1`, with 0.027 nM; and `C[C@@H](NC(=O)[C@]1(C)C[C@](C)(Cl)C1)c1ccc(Cl)cc1Cl`, with 0.012 nM.
Then `C[C@@H](NC(=O)C1CCC1)c1ccc(Br)cc1`, with 520 nM; and `C[C@@H](NC(=O)C1(C)CC(F)(F)C1)c1ccc(Br)cc1`, with 6 nM.
Consider `CC(C)C(C)(C#N)NC(=O)[C@H](C)Oc1ccc(Cl)cc1Cl` (stereo not given in full), for which affinity was put at a Ki of 0.13 nM.
Consider `CC[C@]1(O)C[C@@](C)(C(=O)N[C@H](C)c2ccc(Br)cc2)C1`, for which the inhibition constant (Ki) was 3.2 nM.
Regarding `C[C@@H](NC(=O)[C@]1(C(F)(F)F)C[C@@](C)(Cl)C1)c1ccc(Br)cc1`, the affinity corresponds to a Ki of 0.43 nM.
Molecule `C[C@@H](NC(=O)[C@]1(C(F)(F)F)C[C@@](C)(Cl)C1)c1ccc(Cl)cc1Cl` had a Ki of 0.011 nM.
Then `C[C@@H](NC(=O)[C@]1(C)C[C@](C)(Cl)C1)c1ccc2ccccc2c1`, with 0.016 nM.
Turning to `C[C@@H](NC(=O)[C@]1(C)C[C@](C)(Cl)C1)c1cccc2ccccc12`, the Ki was found to be 3.2 nM.
In the case of `C[C@@H](NC(=O)[C@]1(C)C[C@](C)(O)C1)c1ccc(Br)cc1`, the Ki worked out at 480 nM.

What is called Ki is the equilibrium dissociation constant of an inhibitor or competing ligand from its target. High values mean lower affinity, low ones higher affinity.

Source of the values: ChEMBL document CHEMBL3046840, “Cyclobutane carboxamide inhibitors of fungal melanin: biosynthesis and their evaluation as fungicides” (Bioorg Med Chem, 2000).
